In ChEMBL document CHEMBL1123199, “Synthesis and structure-activity relationships of naftifine-related allylamine antimycotics” (1986):
≈ marks a conversion by molar mass, not a printed value.

Tests used:
[1] = tested on: Aspergillus fumigatus; experiment: Antifungal activity was measured against Aspergillus fumigatus; assay type: functional
[2] = tested on: Candida parapsilosis; experiment: Antifungal activity against Candida parapsilosis.; assay type: functional; details: Lodderomyces parapsilosis
[3] = tested on: Microsporum canis; experiment: Antifungal activity against Microsporum canis; assay type: functional
[4] = tested on: Sporothrix schenckii; experiment: Antifungal activity measured against Sporothrix schenck ii.; assay type: functional
[5] = tested on: Trichophyton benhamiae; experiment: Antifungal activity measured against Trichophyton mentagrophytes; assay type: functional, Arthroderma benhamiae
[6] = tested on: Epidermophyton floccosum; experiment: Antifungal activity against Epidermophyton floccosum.; assay type: functional
[7] = tested on: Trichophyton benhamiae; experiment: ~ Antifungal activity was measured against Trichophyton mentagrophytes.; assay type: functional, Arthroderma benhamiae
[8] = tested on: Aspergillus fumigatus; experiment: Antifungal activity measured against Aspergillus fumigatus; assay type: functional

For `ON(C/C=C/c1ccccc1)Cc1cccc2ccccc12`, the MIC [1] was greater than 100 mg/L, the MIC [2] was greater than 100 mg/L and the MIC [3] was 50 mg/L (≈ 173 µM). For the same compound, the MIC [4] was greater than 100 mg/L and the MIC [5] was 12.5 mg/L (≈ 43.2 µM).
With `CN(C/C=C/c1ccccc1Cl)Cc1cccc2ccccc12` the MIC [6] was 3.1 mg/L (≈ 9.63 µM), the MIC [2] was greater than 100 mg/L and the MIC [7] was less than 1.6 mg/L. It also gave an MIC [3] of less than 1.6 mg/L, an MIC [8] greater than 100 mg/L and an MIC [4] of 25 mg/L (≈ 77.7 µM).
